In assay [1] the test system is p-ERK in AGS cells (KRAS G12D mutation). In words: Cell p-ERK assay (HTRF, Advance ERK phospho-T202/Y204 kit). The format is cell-based, human. The settings on record: AGS cells, 3 hours incubation with compound, HTRF, read-out: AGS p-ERK IC50. Here is the method: AGS was purchased from ATCC; catalog No: CRL-1739; F12K was purchased from Gibco; catalog No: 21127-022; FBS was purchased from Gibco; catalog No: 10099-141C; trypsin (containing EDTA) was purchased from Gibco, catalog No: 25200-072; DMSO was purchased from VWRAMRESCO; catalog No: 0231-500 ML; 96-well cell culture plates were purchased from Corning; catalog No: 3599; white opaque 96-well plates were purchased from Cisbio; catalog No: 66PL96025; Advance ERK phospho-T202/Y204 kit was purchased from Cisbio; catalog No: 64AERPEH; cell counters were purchased from CHEMOMETEC; model No: NC-200; microplate reader was purchased from PerkinElmer; model No: Envison.
AGS is an endogenous human gastric adenocarcinoma cell line containing the KRAS^G12D mutation, cultured in F12K+10% FBS medium. On the first day of the experiment, cells in the logarithmic growth phase were taken, digested with trypsin (containing EDTA), collected, and counted. Approximately 20000 cells/well were seeded in a 96-well cell culture plate and cultured overnight in an incubator with 5% CO2. 1000X stock solutions of compounds at a 3.16-fold concentration gradient were prepared using DMSO, and diluted 200-fold into a 5X compound stock solution using the medium described above. The 5X compound stock solution was added to each cell culturing well the day after cell seeding at a final concentration of 1X and a DMSO content of 0.1%. DMSO was used as a control in the experiment. After the compound was added and the incubation was kept for 3 hours, the medium in the culture wells was removed. 50 μl of Cell lysis solution (from Advance ERK phospho-T202/Y204 kit, the same below) was added to each well, mixed well, and incubated for 30 minutes and then 16 μl of the mixed solution was transferred to a white opaque 96-well plate, another 16 μl of cell lysis solution was added to a well as a blank well. After transferring, 4 μl of p-ERK HTRF antibody mixture (from Advance ERK phospho-T202/Y204 kit) was added to each well. After incubation for 4 hours, HTRF fluorescence value (RLU) was read by a microplate reader, and p-ERK level inhibition rate (IR (%)=(RLU control-RLU compound)/(RLU control-RLU blank)×100%) of the compounds was calculated. The concentration of the compounds and corresponding cell p-ERK level inhibition rate were fitted using Prism 8 four-parameters method, and the IC50 value was calculated.
On the technique in general: TR-FRET usually uses a lanthanide donor and a delayed reading to cut background.

In another assay the test system is AGS cells (KRAS G12D). In words: Cell proliferation inhibition assay, 3D, CellTiter-Glo 3D, AGS. The format is cell-based, human. Conditions: Homo sapiens, 120 h, AGS 3D sphere model, 5 days incubation. The text has this:
AsPC-1 was purchased from ATCC; catalog No: CRL-1682; AGS was purchased from ATCC; catalog No: CRL-1739; RPMI1640 was purchased from Gibco; catalog No: 11875-093 2235123; F12K was purchased from Gibco; catalog No: 21127-022; FBS was purchased from Gibco; catalog No: 10099-141C; trypsin (containing EDTA) was purchased from Gibco; catalog No: 25200-072; CellTiter Glo-3D was purchased from Progema; catalog No: G9683; 384-well sphere plates were purchased from Corning; catalog No: 3830; white opaque 384-well plates were purchased from Corning; catalog No: 3570; cell counters were purchased from CHEMOMETEC; model: NC-200; microplate reader was purchased from PerkinElmer; model: Envison;
AsPC-1 is an endogenous human pancreatic cancer cell containing KRAS^G12D mutation, cultured in RPMI-1640 medium containing 10% FBS; AGS is a human gastric cancer cell line containing KRAS^G12D, cultured in F-12K medium containing 10% FBS. Cells in the logarithmic growth phase were taken, digested with trypsin (containing EDTA), collected, and counted. 800 AsPC-1 cells/well or 400 AGS cells/well, respectively, were seeded in a 384-well sphere plate and cultured overnight at 5% CO2 to establish a 3D cell model. 1000X stock solutions of compounds at a 3.16-fold concentration gradient of were prepared using DMSO, diluted 100-fold into a 10X compound stock solution using the medium described above. The 10X compound stock solution was added to each cell on 2nd day after cell seeding at a final concentration of 1X and a DMSO content of 0.1%. DMSO was used as a control in the experiment, and the medium was used as blank. After the addition of the compounds, the cells were incubated for 5 days. 30 μl of CellTiter-Glo work solution was added to each well, mixed well, and incubated for 30 minutes. After standing at room temperature for 30 minutes, 40 μl of the mixed solution was transferred to an opaque 384-well plate with a white clear bottom. Luminescence chemiluminescence value was read by a microplate reader, and the cell proliferation inhibition rate (IR (%)=(RLU control-RLU compound)/(RLU control-RLU blank)×100%) was calculated. The gradiently diluted concentration of the compounds and corresponding cell proliferation inhibition rate were fitted using XLFit four-parameters method, and the IC50 value was calculated. […] The results of some exemplary compounds are shown in Table 2 (“−” represents untested).
On the technique in general: ATP-based viability assays read luminescence as a measure of living cells.

Read-outs that look alike come from different tables or passages of the source.

Broadly, the IC50 is the midpoint of a concentration-inhibition curve.

Consider `C#Cc1c(F)ccc2cccc(-c3nc4c5c(nc(OCC67CC(=C)CN6C[C@@H]6C[C@@H]67)nc5c3F)N3C[C@H]5CC[C@H](N5)[C@H]3[C@H](C)O4)c12` (stereo partly drawn) [Example Z605, (5S,5aS,6S,9R)-2-(8-ethynyl-7-fluoronaphthalen-1-yl)-1-fluoro-5-methyl-12-(((1aR,6bS)-5-methylenehexahydrocyclopropa[a]pyrrolizin-6a (4H)-yl)methoxy)-5a,6,7,8,9,10-hexahydro-5H-4-oxa-3,10a,11,13,14-pentaaza-6,9-methanonaphtho[1,8-ab]heptalene], for which, in assay [1] (Homo sapiens), the IC50 was 554 nM. As to `C#Cc1cccc2c(N)ccc(-c3nc4c5c(nc(OCC67CC(=C)CN6C[C@H](F)C7)nc5c3F)N3C[C@H]5CC[C@H](N5)[C@H]3[C@H](C)O4)c12` (stereo partly drawn) [Example Z686, 5-ethynyl-4-((5S,5aS,6S,9R)-1-fluoro-12-(((2R)-2-fluoro-6-methylenetetrahydro-1H-pyrrolizin-7a (5H)-yl)methoxy)-5-methyl-5a,6,7,8,9,10-hexahydro-5H-4-oxa-3,10a,11,13,14-pentaaza-6,9-methanonaphtho[1,8-ab]heptalen-2-yl) naphthalen-1-amine], the IC50 in assay [1] (Homo sapiens) turned out to be 447 nM. `C=C1CN2C[C@H](F)CC2(COc2nc3c4c(nc(-c5nc(N)cc(C)c5C5CC5)c(F)c4n2)O[C@@H](C)[C@@H]2[C@@H]4CC[C@H](CN32)N4)C1` (stereo partly drawn) [Example Z676, 5-cyclopropyl-6-((5S,5aS,6S,9R)-1-fluoro-12-(((2R)-2-fluoro-6-methylenetetrahydro-1H-pyrrolizin-7a (5H)-yl)methoxy)-5-methyl-5a,6,7,8,9,10-hexahydro-5H-4-oxa-3,10a, 11, 13, 14-pentaaza-6,9-methanonaphtho[1,8-ab]heptalen-2-yl)-4-methylpyridin-2-amine]: the IC50 amounted to 70 nM in assay [1] (Homo sapiens) and 267 nM in the assay with AGS cells (KRAS G12D).

As for `CCc1cccc2cc(O)cc(-c3cc4nc(OC[C@@]56CCCN5C[C@H](F)C6)nc5c4c(c3Cl)OC[C@@H]3[C@@H]4CC[C@H](CN53)N4)c12` [Example Z381, 4-((5aS,6S,9R)-3-Chloro-13-(((2R,7aS)-2-Fluorotetrahydro-1H-Pyrrolizin-7a (5H)-Yl)Methoxy)-5a,6,7,8,9,10-Hexahydro-5H-6,9-Epiminoazepino[2′,1′: 3,4][1,4]Oxazepino[5,6,7-De]Quinazolin-2-Yl)-5-Ethylnaphthalen-2-Ol], the IC50 in assay [1] came out at 436 nM. For the compound `CCc1cccc2cccc(-c3nc4c5c(nc(OC[C@@]67CCCN6C[C@H](F)C7)nc5c3F)N3C[C@H]5CC[C@H](N5)[C@H]3[C@H](CC)O4)c12` [Example Z592, (5S,5aS,6S,9R)-5-ethyl-2-(8-ethylnaphthalen-1-yl)-1-fluoro-12-(((2R,7aS)-2-fluorotetrahydro-1H-pyrrolizin-7a (5H)-yl)methoxy)-5a,6,7,8,9,10-hexahydro-5H-4-oxa-3,10a,11,13,14-pentaaza-6,9-methanonaphtho[1,8-ab]heptalene], half-maximal inhibition in the assay on AGS cells (KRAS G12D) (IC50) was put at 354 nM. As for `C#Cc1c(F)ccc2cccc(-c3nc4c5c(nc(OCC67CCCN6CC(=C)C7)nc5c3F)N3C[C@H]5CC[C@H](N5)[C@H]3CCO4)c12` (stereo partly drawn) [Example Z640, (6aR,7S, 10R)-2-(8-ethynyl-7-fluoronaphthalen-1-yl)-1-fluoro-13-((2-methylenetetrahydro-1H-pyrrolizin-7a (5H)-yl)methoxy)-5,6,6a,7,8,9,10,11-octahydro-4-oxa-3,11a, 12, 14, 15-pentaaza-7,10-methanocyclohepta[4,5]cycloocta[1,2,3-de]naphthalene], in assay [1] (Homo sapiens), the IC50 is 65.5 nM.

On to `C=C1CN2C[C@H](F)CC2(COc2nc3c4c(nc(-c5cccc6cccc(C#N)c56)c(F)c4n2)O[C@@H](C)[C@@H]2[C@@H]4CC[C@H](CN32)N4)C1` (stereo partly drawn) [Example Z673, 8-((5S,5aS,6S,9R)-1-fluoro-12-(((2R)-2-fluoro-6-methylenetetrahydro-1H-pyrrolizin-7a (5H)-yl)methoxy)-5-methyl-5a,6,7,8,9,10-hexahydro-5H-4-oxa-3,10a,11,13,14-pentaaza-6,9-methanonaphtho[1,8-ab]heptalen-2-yl)-1-naphthonitrile], for which the IC50 in assay [1] (Homo sapiens) turned out to be 147 nM. `C#Cc1c(F)ccc2cccc(-c3nc4c5c(nc(OCC67CCCN6CC(=CF)C7)nc5c3F)N3C[C@H]5CC[C@H](N5)[C@H]3[C@@H](C)O4)c12` (stereo partly drawn) [Example Z630, (5R,5aS,6S,9R)-2-(8-ethynyl-7-fluoronaphthalen-1-yl)-1-fluoro-12-((2-(fluoromethylene)tetrahydro-1H-pyrrolizin-7a (5H)-yl)methoxy)-5-methyl-5a,6,7,8,9,10-hexahydro-5H-4-oxa-3,10a, 11, 13,14-pentaaza-6,9-methanonaphtho[1,8-ab]heptalene]: the IC50 in assay [1] (Homo sapiens) came out at 729 nM. Same read-out and setting: in the case of `C#Cc1c(F)ccc2cccc(-c3nc4c5c(nc(OCC67CC(F)CN6CCC7=C)nc5c3F)N3C[C@H]5CC[C@H](N5)[C@H]3[C@H](C)O4)c12` (stereo partly drawn) [Example Z609, (5S,5aS,6S,9R)-2-(8-ethynyl-7-fluoronaphthalen-1-yl)-1-fluoro-12-((6-fluoro-1-methylenetetrahydro-1H-pyrrolizin-7a (5H)-yl)methoxy)-5-methyl-5a,6,7,8,9,10-hexahydro-5H-4-oxa-3,10a,11,13,14-pentaaza-6,9-methanonaphtho[1,8-ab]heptalene] it was 49.2 nM; in that of `C#Cc1cccc2cc(N)cc(-c3nc4c5c(nc(OC)nc5c3F)N3C[C@H]5CC[C@H](N5)[C@H]3[C@H](C)O4)c12` [Example Z705, 5-ethynyl-4-((5S,5aS,6S,9R)-1-fluoro-12-methoxy-5-methyl-5a,6,7,8,9,10-hexahydro-5H-4-oxa-3,10a, 11,13,14-pentaaza-6,9-methanonaphtho[1,8-ab]heptalen-2-yl) naphthalen-2-amine], 195 nM. For the compound `C#Cc1c(F)ccc2cccc(-c3nc4c5c(nc(OC[C@]67CCCN6C[C@@H]6C[C@@H]67)nc5c3F)N3C[C@H]5CC[C@H](N5)[C@H]3[C@H](C)O4)c12` [Example Z626-1, (5S,5aS,6S,9R)-2-(8-ethynyl-7-fluoronaphthalen-1-yl)-1-fluoro-12-(((1aR,6aR,6bS)-hexahydrocyclopropa[a]pyrrolizin-6a (4H)-yl)methoxy)-5-methyl-5a,6,7,8,9,10-hexahydro-5H-4-oxa-3,10a, 11,13, 14-pentaaza-6,9-methanonaphtho[1,8-ab]heptalene], the values for the IC50 (in assay [1] (Homo sapiens); in the assay with AGS cells (KRAS G12D)) were 411 nM and 502 nM, respectively.
